Test results reported in patent US9850247B2 (Almac Discovery Limited, priority 2013, dated 2017).

Experiments:
Wee-1 kinase = biological target: T1, Wee-1 kinase (Homo sapiens, UniProt P30291); experiment: Measurement of Wee-1 kinase activity (ADP-Glo luminescent kit); assay type: biochemical
T1 construct: purchased Invitrogen PV3817
Method in brief: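 ADP-Glo luminescence reads ADP made over 1 h at RT, after an aliquot of 30 μM ATP and 2.0 μg/mL poly(Lys,Tyr 4:1) substrate. Before that, the kinase sat 30 min with inhibitor in Tris-HCl/MgCl2 buffer with BSA and DTT. IC50 came from regression of percent inhibition.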

[1] = tested on: phospho-cdc2 (Tyr15) in HT-29 cells; experiment: Effect on Cdc2 phosphorylation at Tyr15, Cell-Based ELISA Base Kit (Method 3); settings: Homo sapiens, HT-29, 8 h, eight hours incubation, normalized to total cdc2, read-out: HT29 pCDC2 method 3
Protocol: Method 3: Determining the Effect of Compounds on the Cdc2 phosphorylation at Tyr15, using a Cell-Based ELISA Base Kit (R&D Systems, KCB001)
The colorectal cancer cell line, HT-29 was purchased from the ATCC and maintained in McCoy's 5 A medium (Gibco®, Life technologies) supplemented with 10% Foetal Calf Serum (FCS).
The cells were trypsinised and counted, 100 μL of 8000 cells was seeded into each well of a clear-bottom black 96-well microplate and incubated overnight to allow adherence to the surface, at 37° C. and 5% CO2 in a cell culture incubator.
Test compounds were formulated in DMSO and diluted in cell culture medium supplemented with FCS. Grow medium was removed from cells and medium containing compounds dilutions was added to each well. The plate was returned to the incubator for an additional eight hours of incubation at 37° C. and 5% CO2.
Post incubation cells were fixed by replacing the compounds supplemented medium with 100 μL of 4% formaldehyde in 1× phosphate buffered saline (PBS), for 20 minutes at room temperature. Formaldehyde solution was removed and cells were washed three times with PBS. The Cell-Based ELISA assay (R&D Systems) was carried out immediately after cell fixation or the plate was sealed and fixed cells were stored in PBS at 4° C. until required (no more than two weeks).
To continue the assay, PBS was removed and cells were washed 3 times for 5 minutes with 200 μL of 1× wash buffer. Each wash step was carried out with gentle shaking. Following washes, 100 μL of 0.6% H2O2 in 1× wash buffer (quenching buffer) was added, plate was sealed and incubated for 20 minutes at room temperature. Post incubation cells were washes 3 times for 5 minutes with 200 μL of 1× wash buffer, with gentle shaking. 100 μL of blocking buffer was added to each well, the plate was re-sealed and incubated at room temperature for 1 h.
After blocking, cells were washed as described above. A primary antibody mixture was prepared by mixing the two primary antibodies, a rabbit monoclonal antibody for phospho-cdc2 (Tyr15) (Cell Signaling, #4539) and mouse monoclonal antibody for total cdc2 p34 (Santa Cruz Biotechnology, sc-54), diluted 1:25 and 1:50 in blocking buffer, respectively. 60 μL of primary antibody mixture was added to each well, the plate was sealed and incubated overnight at 4° C.
The primary antibodies were removed and cells were washed as previously described. 100 μL of secondary antibody mixture, containing horseradish-peroxidase (HRP)-conjugated goat anti-rabbit IgG and alkaline phosphatase (AP)-conjugated goat anti-mouse IgG, diluted 1:100 in blocking buffer, was added to each test well. The plate was re-sealed and incubated for 2 hours at room temperature.
The secondary antibodies were removed and cells washed 2 times with wash buffer, followed by 2 washes with PBS. Each wash step was carried out for 5 minutes with gentle shaking. PBS was removed and 75 μL of fluorogenic substrate for HRP (substrate F1) added to each well. The plate was sealed and incubated for 1 h at room temperature, in the dark. 75 μL of fluorogenic substrate for AP (substrate F2) was added directly to each well, plate re-sealed and incubated for additional 40 minutes at room temperature, protected from direct light.
Following incubation fluorescence from each well was read at 600 nm (signal from substrate 1, phosphorylated protein) and then at 450 nm (signal from substrate 2, total protein).
The percentage of phospho-cdc2 was calculated compared to DMSO control, normalized to the total cdc2 and plotted versus the concentration of inhibitor, using GraphPad Prism. Data was fitted using a non-linear regression analysis and EC50 values generated.

[2] = CLint estimates using human liver microsomes (Method 4); assay type: in vitro ADME; settings: pH 7.4, 1 μM compound, read-out: Mics - CLint (HLM CLint)
Method in brief: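 Depletion measured by LC/MS/MS in MRM mode over 2–50 min after starting reactions with 1 mM NADPH. Incubations used 0.5 mg/mL human liver microsomal protein, 1 μM compound, 0.1% DMSO, pH 7.4 phosphate buffer, 37 °C. ln peak area plotted against time; the gradient gave t½ and intrinsic clearance.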

T1 sequence (P30291 whole entry): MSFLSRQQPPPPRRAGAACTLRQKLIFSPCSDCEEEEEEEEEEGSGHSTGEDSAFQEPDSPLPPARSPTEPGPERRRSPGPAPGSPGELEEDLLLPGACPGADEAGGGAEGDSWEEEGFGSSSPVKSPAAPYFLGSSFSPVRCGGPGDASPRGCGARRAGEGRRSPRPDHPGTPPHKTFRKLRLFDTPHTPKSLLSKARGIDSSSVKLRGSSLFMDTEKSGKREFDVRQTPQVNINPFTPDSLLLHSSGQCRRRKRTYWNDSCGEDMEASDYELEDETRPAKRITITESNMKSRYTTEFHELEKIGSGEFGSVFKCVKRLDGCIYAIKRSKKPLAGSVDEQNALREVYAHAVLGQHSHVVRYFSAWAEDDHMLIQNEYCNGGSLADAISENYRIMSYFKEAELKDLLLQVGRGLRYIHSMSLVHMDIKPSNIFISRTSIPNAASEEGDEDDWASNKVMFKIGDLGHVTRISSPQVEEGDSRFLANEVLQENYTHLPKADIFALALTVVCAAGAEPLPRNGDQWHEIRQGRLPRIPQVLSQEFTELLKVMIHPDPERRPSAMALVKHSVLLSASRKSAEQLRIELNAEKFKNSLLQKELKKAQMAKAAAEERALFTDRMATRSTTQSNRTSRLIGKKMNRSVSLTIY

What does the source list for `CN1CCN(c2ccc(Nc3ncc4c(n3)N(C)CN(c3c(Cl)cccc3Cl)C4=O)cc2)CC1` [Example 117, 3-(2,6-dichlorophenyl)-1-methyl-7-((4-(4-methylpiperazin-1-yl)phenyl)amino)-2,3-dihydropyrimido[4,5-d]pyrimidin-4(1H)-one]?
IC50 (Wee-1 kinase): 10 to 100 nM; EC50 [1]: 100 to 1000 nM; microsomal CLint at 1 μM [2]: 15 to 50 µL/min/mg

For `C[C@@H]1CN(c2ccc(Nc3ncc4c(n3)N(C)CN(c3c(Cl)cccc3Cl)C4=O)cc2CO)CCN1C` [Example 46, (R)-3-(2,6-dichlorophenyl)-7-((4-(3,4-dimethylpiperazin-1-yl)-3-(hydroxymethyl)phenyl)amino)-1-methyl-2,3-dihydropyrimido[4,5-d]pyrimidin-4(1H)-one], which IC50 (Wee-1 kinase) is on record?
Its IC50 is at most 10 nM.

What about the EC50 [1] of the same compound?
The EC50 was 100 to 1000 nM.

And the microsomal CLint at 1 μM [2]?
Its microsomal CLint at 1 μM is at most 15 µL/min/mg.

Which IC50 (Wee-1 kinase) does the source give for `CCN1CN(c2c(Cl)cccc2Cl)C(=O)c2cnc(Nc3ccc(N4CCNCC4)cc3)nc21` [Example 169, 3-(2,6-dichlorophenyl)-1-ethyl-7-((4-(piperazin-1-yl)phenyl)amino)-2,3-dihydropyrimido[4,5-d]pyrimidin-4(1H)-one] here?
Its IC50 is 10 to 100 nM.

And the EC50 [1]?
Its EC50 is at least 1000 nM.

What about the microsomal CLint at 1 μM [2] of the same compound?
Its microsomal CLint at 1 μM is at most 15 µL/min/mg.

For `CNCc1cc(Nc2ncc3c(n2)N(C)CN(c2c(Cl)cccc2Cl)C3=O)ccc1N1CCS(=O)(=O)CC1` [Example 146, 3-(2,6-dichlorophenyl)-7-((4-(1,1-dioxidothiomorpholino)-3-((methylamino)methyl)phenyl)amino)-1-methyl-2,3-dihydropyrimido[4,5-d]pyrimidin-4(1H)-one], which IC50 (Wee-1 kinase) is on record?
The IC50 was at most 10 nM.

And the EC50 [1]?
The EC50 was at least 1000 nM.

What about the microsomal CLint at 1 μM [2] of the same compound?
Its microsomal CLint at 1 μM is at most 15 µL/min/mg.

Which results are given for `C[C@@H]1CN(c2ccc(Nc3ncc4c(n3)N(C)CN(c3c(Cl)cccc3Cl)C4=O)cc2)C[C@H](C)N1` [Example 83, 3-(2,6-dichlorophenyl)-7-((4-((3R,5S)-3,5-dimethylpiperazin-1-yl)phenyl)amino)-1-methyl-2,3-dihydropyrimido[4,5-d]pyrimidin-4(1H)-one]?
IC50 (Wee-1 kinase): ≤ 10 nM; EC50 [1]: 100 to 1000 nM; microsomal CLint at 1 μM [2]: 15 to 50 µL/min/mg

Which results are given for `CNCc1cc(Nc2ncc3c(n2)N(C)CN(c2c(Cl)cccc2Cl)C3=O)ccc1N(C)C` [Example 153, 3-(2,6-dichlorophenyl)-7-((4-(dimethylamino)-3-((methylamino)methyl)phenyl)amino)-1-methyl-2,3-dihydropyrimido[4,5-d]pyrimidin-4(1H)-one]?
IC50 (Wee-1 kinase): ≤ 10 nM; EC50 [1]: 100 to 1000 nM; microsomal CLint at 1 μM [2]: 15 to 50 µL/min/mg

Which results are given for `CNCc1cc(Nc2ncc3c(n2)N(C)CN(c2c(Cl)cccc2Cl)C3=O)ccc1N1CCC(F)(F)CC1` [Example 147, 3-(2,6-dichlorophenyl)-7-((4-(4,4-difluoropiperidin-1-yl)-3-((methylamino)methyl)phenyl)amino)-1-methyl-2,3-dihydropyrimido[4,5-d]pyrimidin-4(1H)-one]?
IC50 (Wee-1 kinase): ≤ 10 nM; EC50 [1]: 100 to 1000 nM; microsomal CLint at 1 μM [2]: ≤ 15 µL/min/mg

What does the source list for `CN1CN(c2c(Cl)cccc2Cl)C(=O)c2cnc(Nc3ccc(N4CC5CCC(C4)N5C)cc3)nc21` [Example 88, 3-(2,6-dichlorophenyl)-1-methyl-7-((4-(8-methyl-3,8-diazabicyclo[3.2.1]octan-3-yl)phenyl)amino)-2,3-dihydropyrimido[4,5-d]pyrimidin-4(1H)-one]?
IC50 (Wee-1 kinase): ≤ 10 nM; EC50 [1]: 100 to 1000 nM; microsomal CLint at 1 μM [2]: 15 to 50 µL/min/mg

What does the source list for `CC(=O)N1CCN(c2ccc(Nc3ncc4c(n3)N(C)CN(c3c(Cl)cccc3Cl)C4=O)cc2CN(C)C)CC1` [Example 144, 7-((4-(4-acetylpiperazin-1-yl)-3-((dimethylamino)methyl)phenyl)amino)-3-(2,6-dichlorophenyl)-1-methyl-2,3-dihydropyrimido[4,5-d]pyrimidin-4(1H)-one]?
IC50 (Wee-1 kinase): ≤ 10 nM; EC50 [1]: 100 to 1000 nM; microsomal CLint at 1 μM [2]: 15 to 50 µL/min/mg

What does the source list for `Cc1cccc(Cl)c1N1CN(C)c2nc(Nc3ccc(N4CC5CCC(C4)N5C)c(CO)c3)ncc2C1=O` [Example 114, 3-(2-chloro-6-methylphenyl)-7-((3-(hydroxymethyl)-4-(8-methyl-3,8-diazabicyclo[3.2.1]octan-3-yl)phenyl)amino)-1-methyl-2,3-dihydropyrimido[4,5-d]pyrimidin-4(1H)-one]?
IC50 (Wee-1 kinase): ≤ 10 nM; EC50 [1]: 100 to 1000 nM; microsomal CLint at 1 μM [2]: ≤ 15 µL/min/mg

With `C[C@@H]1CN(c2ccc(Nc3ncc4c(n3)N(C)CN(c3c(Cl)cccc3Cl)C4=O)cc2C(C)(C)O)CCN1` [Example 140, (R)-3-(2,6-dichlorophenyl)-7-((3-(2-hydroxypropan-2-yl)-4-(3-methylpiperazin-1-yl)phenyl)amino)-1-methyl-2,3dihydropyrimido [4,5-d]pyrimidin-4(1H)-one] as the compound, how does the IC50 (Wee-1 kinase) read?
Its IC50 is 10 to 100 nM.

What about the EC50 [1] of the same compound?
The EC50 was at least 1000 nM.

What about the microsomal CLint at 1 μM [2] of the same compound?
The microsomal CLint at 1 μM was 15 to 50 µL/min/mg.

With `C[C@@H]1CN(c2ccc(Nc3ncc4c(n3)N(C)CN(c3c(Cl)cccc3Cl)C4=O)cc2CN(C)C)C[C@H](C)O1` [Example 151, 3-(2,6-dichlorophenyl)-7-((3-((dimethylamino)methyl)-4-((2S,6R)-2,6-dimethylmorpholino)phenyl)amino)-1-methyl-2,3-dihydropyrimido[4,5-d]pyrimidin-4(1H)-one] as the compound, how does the IC50 (Wee-1 kinase) read?
The IC50 was at most 10 nM.

What about the EC50 [1] of the same compound?
Its EC50 is 100 to 1000 nM.

And the microsomal CLint at 1 μM [2]?
The microsomal CLint at 1 μM was at least 50 µL/min/mg.

For `COC[C@H]1CN(c2ccc(Nc3ncc4c(n3)N(C)CN(c3c(Cl)cccc3Cl)C4=O)cc2CO)CCN1` [Example 135, (R)-3-(2,6-dichlorophenyl)-7-((3-(hydroxymethyl)-4-(3-(methoxymethyl)piperazin-1-yl)phenyl)amino)-1-methyl-2,3-dihydropyrimido[4,5-d]pyrimidin-4(1H)-one], which IC50 (Wee-1 kinase) is on record?
The IC50 was at most 10 nM.

What about the EC50 [1] of the same compound?
The EC50 was 100 to 1000 nM.

And the microsomal CLint at 1 μM [2]?
The microsomal CLint at 1 μM was at most 15 µL/min/mg.

Which IC50 (Wee-1 kinase) does the source give for `CCN1CN(c2c(Cl)cccc2Cl)C(=O)c2cnc(Nc3ccc(N4C[C@@H](C)N[C@@H](C)C4)c(CO)c3)nc21` [Example 170, 3-(2,6-dichlorophenyl)-7-((4-((3S,5R)-3,5-dimethylpiperazin-1-yl)-3-(hydroxymethyl)phenyl)amino)-1-ethyl-2,3-dihydropyrimido[4,5-d]pyrimidin-4(1H)-one] here?
The IC50 was at most 10 nM.

And the EC50 [1]?
Its EC50 is 100 to 1000 nM.

And the microsomal CLint at 1 μM [2]?
The microsomal CLint at 1 μM was 15 to 50 µL/min/mg.

With `C[C@@H]1CN(c2ccc(Nc3ncc4c(n3)N(C)CN(c3c(Cl)cccc3Cl)C4=O)cc2CO)CCN1` [Example 38, (R)-3-(2,6-dichlorophenyl)-7-((3-(hydroxymethyl)-4-(3-methylpiperazin-1-yl)phenyl)amino)-1-methyl-2,3-dihydropyrimido[4,5-d]pyrimidin-4(1H)-one] as the compound, how does the IC50 (Wee-1 kinase) read?
The IC50 was at most 10 nM.

And the EC50 [1]?
Its EC50 is 100 to 1000 nM.

What about the microsomal CLint at 1 μM [2] of the same compound?
Its microsomal CLint at 1 μM is at most 15 µL/min/mg.

With `CN1Cc2cc(Nc3ncc4c(n3)N(C)CN(c3c(Cl)cccc3Cl)C4=O)ccc2C2(CC2)C1` [Example 76, 3-(2,6-dichlorophenyl)-1-methyl-7-((2′-methyl-2′,3′-dihydro-1′H-spiro[cyclopropane-1,4′-isoquinolin]-7′-yl)amino)-2,3-dihydropyrimido[4,5-d]pyrimidin-4(1H)-one] as the compound, how does the IC50 (Wee-1 kinase) read?
Its IC50 is at most 10 nM.

What about the EC50 [1] of the same compound?
Its EC50 is 100 to 1000 nM.

What about the microsomal CLint at 1 μM [2] of the same compound?
The microsomal CLint at 1 μM was at least 50 µL/min/mg.

For `CNCc1cccc(N2CN(c3c(Cl)cccc3Cl)C(=O)c3cnc(Nc4ccc(N5CCOCC5)cc4)nc32)c1` [Example 168, 3-(2,6-dichlorophenyl)-1-(3-((methylamino)methyl)phenyl)-7-((4-morpholinophenyl)amino)-2,3-dihydropyrimido[4,5-d]pyrimidin-4(1H)-one], which IC50 (Wee-1 kinase) is on record?
The IC50 was at most 10 nM.

And the EC50 [1]?
Its EC50 is 100 to 1000 nM.

And the microsomal CLint at 1 μM [2]?
Its microsomal CLint at 1 μM is at most 15 µL/min/mg.
